{"source": "patent US7803546B2", "about": "“Method of screening for sensitivity to kinase inhibitor therapy” (Cedars-Sinai Medical Center, priority 2002, dated 2010)", "key": {"[1]": {"system": "IRESSA-resistant (IR) CWR22R tumors", "assay": "Treatment of IRESSA-resistant (IR) CWR22R tumor lines", "conditions": "after three weeks of treatment, tumor growth curves"}, "[2]": {"system": "androgen-independent (CWR22R) xenograft tumors", "protocol": "(§1) A control (i.e., no TKI administered) is graphically depicted as well. This experiment was performed in an androgen-independent prostate xenograft model. […] The daily dosing was at the maximally tolerated dosage in the mice.\nas §1"}, "[3]": {"system": "non-small cell lung cancer", "assay": "Clinical response to TKI therapy in non-small cell lung cancer patients, correlated with EMP-1 expression", "assay_type": "in vivo, human", "conditions": "NSCLC patients; EMP-1 detectable by TAQMAN", "protocol": "The gene expression profiles of IR tumors were analyzed by gene chip analysis, using the gene arrays described in Alon et al., Proc. Natl. Acad. Sci. USA, vol. […] Presence of EMP-1 RNA was assessed with TAQMAN from paraffin samples."}}}
{"smiles": "COc1cc2ncnc(Nc3ccc(F)c(Cl)c3)c2cc1OCCCN1CCOCC1", "note": "[IRESSA, Gefitnib]", "values": [{"measurement": "Response of serially passaged tumors to IRESSA, generations F0-F3", "setting": "[1]", "value": "demonstrated sensitivity"}, {"measurement": "Tolerability of weekly dosing", "setting": "[2]; mouse, in vivo", "value": "well tolerated"}, {"measurement": "Decrease in tumor volume in this tumor model", "setting": "[2]; summary range following IRESSA treatment (covers CWR22 and CWR22R)", "value": "50-70%"}, {"measurement": "Probability of response to therapy in individuals with EMP-1 expression above threshold", "setting": "[3]", "value": "less than 10%"}]}
